Test systems include Hs-578T; CAKI-1; U-251; T47D; CCRF-CEM; OVCAR-5; NCI-H522; IGROV-1; HCT-15; HOP-62; 786-0; RPMI-8226; HCT-116; LOX IMVI; SNB-19; ACHN; MDA-MB-231; A498.
Common to all, as to experiment: inhibition of tumour cell growth, NCI panel, 48 h

Each structure is given as a SMILES string.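 Growth conditions: 96-well plates. Treatment: test compound, 48 hours, 5 concentrations. Analysis: linear interpolation between bracketing concentrations; unreached endpoints set to highest concentration. The concentration for 50% growth inhibition is given as GI50.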 Calls of active or inactive are those of the source. Rule as the data show it: active = GI50 up to about 1.1 µM and inactive = higher.

For the molecule `N#CCSc1c(-c2ccccc2)c(=O)n(-c2ccccc2)c(=S)n1-c1ccccc1`, the GI50 is 51.5 µM (inactive) in the experiment with Hs-578T; > 100 µM (inactive) in the experiment with CAKI-1; > 100 µM (inactive) with U-251; > 100 µM (inactive) with T47D; 96.8 µM (inactive) with CCRF-CEM; > 100 µM (inactive) in the experiment on OVCAR-5. Besides, the GI50 in the experiment with NCI-H522 was > 100 µM (inactive); with IGROV-1, > 100 µM (inactive); in the experiment with HCT-15, > 100 µM; in the experiment on HOP-62 it was > 100 µM (inactive); in the experiment on 786-0, > 100 µM (inactive); in the experiment with RPMI-8226, > 100 µM (inactive). The GI50 with HCT-116, with LOX IMVI, in the experiment on SNB-19 and in the experiment on ACHN was > 100 µM (inactive) in each case.

Take `Cc1ccc2c(c1)CC1(Cc3cc(C)ccc3C1=O)C2=O`: the GI50 in the experiment with Hs-578T, in the experiment on CAKI-1, in the experiment on U-251, in the experiment on T47D, with CCRF-CEM and in the experiment with MDA-MB-231 was > 100 µM (inactive) in each case. For the same molecule, the GI50 was > 100 µM (inactive) with OVCAR-5; > 100 µM (inactive) with NCI-H522; > 100 µM (inactive) in the experiment with IGROV-1; > 100 µM in the experiment on HCT-15; > 100 µM (inactive) in the experiment on HOP-62; > 100 µM (inactive) with 786-0. Further, the GI50 in the experiment with A498, with RPMI-8226, in the experiment on HCT-116, with LOX IMVI, in the experiment on SNB-19 and in the experiment on ACHN was > 100 µM (inactive) throughout.

As for `COC(=O)/C=C(\C)C(=O)N(C)c1ccccc1I`, the GI50 in the experiment on CAKI-1 is 72.1 µM (inactive); in the experiment with U-251 it was > 100 µM (inactive); in the experiment on T47D, > 100 µM (inactive); with CCRF-CEM, > 100 µM (inactive); with MDA-MB-231, > 100 µM (inactive); with OVCAR-5 it was > 100 µM (inactive). For the same molecule, the GI50 was > 100 µM in the experiment on HCT-15; > 100 µM (inactive) with HOP-62; > 100 µM (inactive) with 786-0; > 100 µM (inactive) with A498; > 100 µM (inactive) in the experiment on RPMI-8226; > 100 µM (inactive) in the experiment on HCT-116. Besides, the GI50 in the experiment on LOX IMVI, in the experiment on SNB-19 and with ACHN was > 100 µM (inactive) throughout.

As for `O=c1ccn(C2OC(CO)C(O)C2F)c(=O)n1Cc1ccccc1` (stereo not drawn), the GI50 with Hs-578T, with CAKI-1, with U-251, in the experiment with T47D, with CCRF-CEM and in the experiment with MDA-MB-231 was > 100 µM (inactive) each time. In addition, the GI50 in the experiment with OVCAR-5 is > 100 µM (inactive); with NCI-H522, > 100 µM (inactive); in the experiment with IGROV-1, > 100 µM (inactive); with HCT-15, > 100 µM; in the experiment on HOP-62, > 100 µM (inactive); in the experiment with 786-0 it was > 100 µM (inactive). Moreover, the GI50 in the experiment on RPMI-8226, in the experiment with HCT-116, with LOX IMVI, in the experiment on SNB-19 and in the experiment on ACHN was > 100 µM (inactive) throughout.

On to `O=C(NCCCl)NCc1ccccc1`, for which the GI50 in the experiment on Hs-578T, with CAKI-1, in the experiment on U-251, with T47D, with CCRF-CEM and in the experiment with MDA-MB-231 was > 100 µM (inactive) each time. For the same molecule, the GI50 with OVCAR-5 was > 100 µM (inactive); with NCI-H522, > 100 µM (inactive); in the experiment with IGROV-1, > 100 µM (inactive); in the experiment with HCT-15 it was > 100 µM; in the experiment on HOP-62, > 100 µM (inactive); in the experiment on 786-0, > 100 µM (inactive). Moreover, the GI50 with A498, in the experiment with RPMI-8226, in the experiment on HCT-116, with LOX IMVI, in the experiment with SNB-19 and in the experiment on ACHN was > 100 µM (inactive) each time.

In the case of `COC(=O)[C@@H]1CN(C(C)=O)C(=O)N1`, the GI50 with Hs-578T was > 100 µM (inactive); with CAKI-1 it was > 100 µM (inactive); with U-251, > 100 µM (inactive); in the experiment on T47D, 43.9 µM (inactive); with CCRF-CEM, > 100 µM (inactive); in the experiment with MDA-MB-231, 5.06 µM (inactive). Further, the GI50 in the experiment with OVCAR-5 was > 100 µM (inactive); in the experiment on NCI-H522, > 100 µM (inactive); in the experiment on IGROV-1 it was > 100 µM (inactive); in the experiment with HCT-15 it was > 100 µM; with HOP-62 it was > 100 µM (inactive); in the experiment with 786-0, > 100 µM (inactive). The GI50 with A498, with RPMI-8226, in the experiment with HCT-116, with LOX IMVI, in the experiment with SNB-19 and in the experiment with ACHN was > 100 µM (inactive) in each case.

Regarding `CC(=O)Nc1ccc(/C=C2/NC(=S)N(/C=C3\C(=O)Oc4ccccc4C3=O)C2=O)cc1`, the GI50 in the experiment on Hs-578T was 22.5 µM (inactive); in the experiment on CAKI-1, 49.5 µM (inactive); in the experiment with U-251, 46.3 µM (inactive); in the experiment on T47D it was 64.3 µM (inactive); in the experiment on CCRF-CEM, 45.1 µM (inactive); in the experiment with MDA-MB-231, 16.2 µM (inactive). Also, the GI50 in the experiment on OVCAR-5 is > 100 µM (inactive); in the experiment on NCI-H522, 36.7 µM (inactive); with IGROV-1, 49 µM (inactive); in the experiment on HCT-15 it was 32.7 µM; with HOP-62, 48 µM (inactive); with 786-0 it was 69 µM (inactive). For the same molecule, the GI50 is 87.5 µM (inactive) in the experiment with A498; 47.9 µM (inactive) in the experiment on RPMI-8226; 52.7 µM (inactive) in the experiment with HCT-116; > 100 µM (inactive) in the experiment on LOX IMVI; > 100 µM (inactive) with SNB-19; > 100 µM (inactive) in the experiment on ACHN.

For the molecule `CCC1(O)CC(OC2CC(N(C)C)C(OC3CC(O)C(OC4OC(C)C(=O)C=C4N)C(C)O3)C(C)O2)c2c(O)c3c(c(O)c2C1C(=O)OC)C(=O)c1cccc(O)c1C3=O` (stereo not drawn), the GI50 in the experiment on Hs-578T was 0.0309 µM (active); in the experiment with CAKI-1 it was 0.00489 µM (active); in the experiment on U-251 it was 0.00336 µM (active); with T47D, 0.0118 µM (active); in the experiment on CCRF-CEM, 0.00284 µM (active); in the experiment on MDA-MB-231 it was 0.0583 µM (active). For the same molecule, the GI50 in the experiment on OVCAR-5 is 0.00792 µM (active); with NCI-H522, 0.0121 µM (active); in the experiment on IGROV-1 it was 0.00354 µM (active); in the experiment on HCT-15 it was 0.0418 µM; in the experiment with HOP-62, 0.0239 µM (active); in the experiment on 786-0, 0.0021 µM (active). The GI50 in the experiment with A498 was 0.00105 µM (active); in the experiment with RPMI-8226 it was 0.00314 µM (active); in the experiment with HCT-116 it was 0.000617 µM (active); in the experiment on LOX IMVI it was 0.0115 µM (active); in the experiment with SNB-19, 0.00929 µM (active); with ACHN, 0.00418 µM (active).
